From ChEMBL document CHEMBL1201862, “PubChem BioAssay data set” (2004)
Activity calls are given as the source filed them.

Key:
[1] = target: T1, Fatty acid synthase (Homo sapiens, UniProt P49327); test: FAS thioesterase domain inhibitors, dose response, biochemical, endpoint fluorescence intensity, uHTS hits (AID 624327); type: functional;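 further: fluorescence from hydrolysis of an O-methyl fluorescein acyl ester substrate by the enzyme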
[2] = target: T1, Fatty acid synthase; test: FAS thioesterase domain inhibitors, dose response, biochemical, kinetic fluorescence intensity (AID 624326); type: functional;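 further: rate of fluorescence rise from hydrolysis of a fluorogenic O-methyl fluorescein ester substrate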
[3] = Luminescence Cell-Based Dose Confirmation HTS to Identify Activators of 5'UTR Stem-Loop Driven Alpha-Synuclein mRNA Translation in H4 Neuroglioblastoma Cells. [Related pubchem assays: 1829 (Project Summary), 1814 (Primary HTS)]; type: functional
[4] = Luminescence Cell-Based Dose Response HTS to Identify Activators of Luciferase Translation or Activity in H4 […] Cells. [Related pubchem assays: 1829 (Project Summary), 1814 (Primary HTS)]; type: functional
[5] = cells; type: functional, cell-based
[6] = cells; type: functional, cell-based; remark: listed apart in the source
[7] = target: T2, Replicative DNA helicase DnaB (Mycobacterium tuberculosis, UniProt P9WMR3); test: DnaB intein splicing inhibitors, dose response, biochemical, cell-free fluorescence (AID 449749); type: functional
T2 sequence (P9WMR3 whole entry): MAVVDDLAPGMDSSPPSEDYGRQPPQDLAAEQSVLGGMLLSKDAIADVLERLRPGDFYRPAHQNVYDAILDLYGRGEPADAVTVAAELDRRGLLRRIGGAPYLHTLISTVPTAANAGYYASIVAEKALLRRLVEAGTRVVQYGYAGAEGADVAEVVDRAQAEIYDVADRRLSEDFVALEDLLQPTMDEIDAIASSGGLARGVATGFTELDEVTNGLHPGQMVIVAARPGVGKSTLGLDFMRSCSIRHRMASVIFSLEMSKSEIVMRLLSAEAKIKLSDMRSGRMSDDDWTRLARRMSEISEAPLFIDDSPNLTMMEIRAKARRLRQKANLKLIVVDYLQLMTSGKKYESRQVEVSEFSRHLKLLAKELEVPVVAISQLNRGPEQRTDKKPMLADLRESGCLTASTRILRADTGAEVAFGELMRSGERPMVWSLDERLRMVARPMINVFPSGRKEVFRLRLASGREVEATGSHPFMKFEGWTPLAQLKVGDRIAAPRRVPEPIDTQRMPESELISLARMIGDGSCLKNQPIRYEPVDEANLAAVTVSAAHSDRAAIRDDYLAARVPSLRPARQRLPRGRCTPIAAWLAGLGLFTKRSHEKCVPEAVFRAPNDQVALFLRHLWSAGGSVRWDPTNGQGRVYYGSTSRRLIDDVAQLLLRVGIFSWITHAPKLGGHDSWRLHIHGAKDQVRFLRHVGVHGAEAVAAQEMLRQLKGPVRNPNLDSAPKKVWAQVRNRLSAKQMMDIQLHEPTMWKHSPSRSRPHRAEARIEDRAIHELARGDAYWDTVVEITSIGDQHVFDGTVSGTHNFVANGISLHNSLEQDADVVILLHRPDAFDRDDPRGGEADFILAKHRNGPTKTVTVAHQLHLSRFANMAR

[8] = target: T3, Protein RecA (Mycobacterium tuberculosis, UniProt P9WHJ3); test: Fluorescence Cell-Free Homogeneous Dose Retest to Identify Inhibitors of RecA-Intein Splicing Activity. [Related pubchem assays (depositor defined):AID2097, AID2223, AID489010, AID492950]; type: functional
T3 sequence (P9WHJ3 whole entry): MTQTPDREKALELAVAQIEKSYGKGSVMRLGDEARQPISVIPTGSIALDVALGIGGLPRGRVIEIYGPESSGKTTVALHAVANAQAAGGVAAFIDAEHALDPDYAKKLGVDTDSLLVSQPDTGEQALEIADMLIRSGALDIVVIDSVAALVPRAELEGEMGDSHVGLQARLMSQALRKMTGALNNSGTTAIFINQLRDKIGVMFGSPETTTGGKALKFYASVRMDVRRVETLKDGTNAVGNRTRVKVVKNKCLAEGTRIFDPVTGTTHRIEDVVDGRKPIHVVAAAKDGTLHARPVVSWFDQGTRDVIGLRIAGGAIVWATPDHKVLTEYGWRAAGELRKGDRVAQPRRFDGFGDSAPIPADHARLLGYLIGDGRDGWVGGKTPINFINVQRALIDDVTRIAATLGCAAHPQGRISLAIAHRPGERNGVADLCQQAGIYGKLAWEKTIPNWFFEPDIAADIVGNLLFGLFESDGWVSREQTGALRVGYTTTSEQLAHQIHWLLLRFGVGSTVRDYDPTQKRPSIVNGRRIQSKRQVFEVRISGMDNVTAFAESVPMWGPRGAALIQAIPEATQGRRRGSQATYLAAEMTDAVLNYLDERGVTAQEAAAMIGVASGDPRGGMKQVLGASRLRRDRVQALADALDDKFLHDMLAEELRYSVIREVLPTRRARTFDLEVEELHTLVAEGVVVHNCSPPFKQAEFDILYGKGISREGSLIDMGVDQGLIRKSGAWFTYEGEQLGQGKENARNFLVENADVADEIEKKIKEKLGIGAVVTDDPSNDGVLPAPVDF

[9] = target: T4, Polyadenylate-binding protein 1 (Homo sapiens, UniProt P11940); test: PABP1 MLLE–PAM2 interaction inhibitors, dose response, miRNA deadenylation inhibitor project, biochemical, fluorescence polarization, Cy5-PAM2 peptide, secondary (AID 602260); type: functional; settings: read-out: IC50_Mean
T4 sequence (P11940 whole entry): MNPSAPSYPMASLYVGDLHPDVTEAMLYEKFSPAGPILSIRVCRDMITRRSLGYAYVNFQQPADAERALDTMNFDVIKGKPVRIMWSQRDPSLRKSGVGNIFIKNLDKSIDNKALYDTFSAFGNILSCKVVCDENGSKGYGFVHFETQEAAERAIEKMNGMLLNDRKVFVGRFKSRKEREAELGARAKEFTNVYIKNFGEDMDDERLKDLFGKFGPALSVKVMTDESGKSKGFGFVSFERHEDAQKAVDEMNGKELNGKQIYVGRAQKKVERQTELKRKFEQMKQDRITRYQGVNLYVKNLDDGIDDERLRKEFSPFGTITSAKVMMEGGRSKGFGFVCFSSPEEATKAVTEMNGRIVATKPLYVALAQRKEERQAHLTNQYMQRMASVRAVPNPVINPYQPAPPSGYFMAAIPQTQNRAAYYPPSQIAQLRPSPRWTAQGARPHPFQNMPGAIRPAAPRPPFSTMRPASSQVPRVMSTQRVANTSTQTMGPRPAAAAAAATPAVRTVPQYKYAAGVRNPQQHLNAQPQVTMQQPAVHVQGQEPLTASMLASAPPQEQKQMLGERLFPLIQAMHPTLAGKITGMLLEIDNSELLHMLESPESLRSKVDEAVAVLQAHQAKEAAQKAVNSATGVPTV

[10] = target: T4, Polyadenylate-binding protein 1; test: PABP1 MLLE–PAM2 binding inhibitor potency, dose response, biochemical, fluorescence polarization, FITC-PAM2 peptide (AID 602259); type: functional; settings: read-out: IC50_Mean
[11] = test system: H4; test: Luminescence Cell-Based Dose Response HTS to Identify Activators of 5'UTR Stem-Loop Driven Prion Protein mRNA Translation in H4 Neuroglioblastoma Cells. [Related pubchem assays: 1829 (Project Summary), 1814 (Primary HTS)]; type: functional; settings: Homo sapiens
[12] = target: T5, Heat shock factor protein 1 (Mus musculus, UniProt P38532); test: inhibition of MG132-induced HSE-luciferase signal, confirmation, cell-based, NIH3T3, luminescence, dose retest (AID 2382); type: functional;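 further: NIH3T3 fibroblasts with HSF1-driven luciferase reporter stressed by proteasome inhibitor MG132; luminescence from HSF1-driven luciferase expression after 8 hours of MG132 stress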
T5 sequence (P38532 whole entry): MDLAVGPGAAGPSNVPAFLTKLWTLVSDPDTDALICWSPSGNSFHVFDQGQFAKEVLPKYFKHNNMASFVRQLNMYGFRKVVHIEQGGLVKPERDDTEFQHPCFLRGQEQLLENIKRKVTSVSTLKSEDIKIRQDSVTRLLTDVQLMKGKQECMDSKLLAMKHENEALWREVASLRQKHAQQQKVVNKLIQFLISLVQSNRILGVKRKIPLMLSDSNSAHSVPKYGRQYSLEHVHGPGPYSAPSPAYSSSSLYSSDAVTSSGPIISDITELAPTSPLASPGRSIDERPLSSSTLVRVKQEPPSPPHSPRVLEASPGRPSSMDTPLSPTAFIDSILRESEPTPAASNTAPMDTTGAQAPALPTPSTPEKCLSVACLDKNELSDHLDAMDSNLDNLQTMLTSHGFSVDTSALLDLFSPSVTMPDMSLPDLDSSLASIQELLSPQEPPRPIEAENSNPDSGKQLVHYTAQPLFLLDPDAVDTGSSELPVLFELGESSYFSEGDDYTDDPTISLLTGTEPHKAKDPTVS

[13] = Shn3 3'UTR reporter inhibitors, dose response, cell-based, Clone20 osteoblasts, firefly luciferase, cherry-picked (AID 624132); type: functional;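 further: firefly luciferase luminescence from reporter carrying the Shn3 3'UTR in osteoblasts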
[14] = HepG2 cell cytotoxicity, dose response, cytotoxicity control for Shn3 inhibitor project, CellTiter-Glo, cherry-picked (AID 624134); type: functional, cell-based
[15] = control 3'UTR Renilla luciferase suppression, dose response, counter-screen for Shn3 inhibitor project, cell-based, Clone20-Shn3RL, cherry-picked (AID 624133); type: functional
[16] = target: T6, Protein skinhead-1 (Caenorhabditis elegans, UniProt P34707); type: functional
T6 sequence (P34707 whole entry): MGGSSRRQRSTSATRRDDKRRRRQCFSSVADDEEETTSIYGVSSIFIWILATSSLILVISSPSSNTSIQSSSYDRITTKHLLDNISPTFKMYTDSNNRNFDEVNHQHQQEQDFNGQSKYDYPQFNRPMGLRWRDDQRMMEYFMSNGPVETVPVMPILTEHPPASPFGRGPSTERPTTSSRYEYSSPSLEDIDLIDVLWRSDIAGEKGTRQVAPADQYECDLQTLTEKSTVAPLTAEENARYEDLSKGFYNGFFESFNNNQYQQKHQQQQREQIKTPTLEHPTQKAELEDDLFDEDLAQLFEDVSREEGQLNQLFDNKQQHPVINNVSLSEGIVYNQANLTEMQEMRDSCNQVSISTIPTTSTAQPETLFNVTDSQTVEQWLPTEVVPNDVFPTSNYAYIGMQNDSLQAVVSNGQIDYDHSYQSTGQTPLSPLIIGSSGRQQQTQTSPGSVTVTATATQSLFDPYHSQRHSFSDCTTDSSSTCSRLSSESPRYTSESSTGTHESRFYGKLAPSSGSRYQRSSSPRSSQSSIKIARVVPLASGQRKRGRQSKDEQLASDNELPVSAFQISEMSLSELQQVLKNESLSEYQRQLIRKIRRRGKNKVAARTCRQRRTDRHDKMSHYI

T1 sequence (P49327 whole entry, the tested form may be a part): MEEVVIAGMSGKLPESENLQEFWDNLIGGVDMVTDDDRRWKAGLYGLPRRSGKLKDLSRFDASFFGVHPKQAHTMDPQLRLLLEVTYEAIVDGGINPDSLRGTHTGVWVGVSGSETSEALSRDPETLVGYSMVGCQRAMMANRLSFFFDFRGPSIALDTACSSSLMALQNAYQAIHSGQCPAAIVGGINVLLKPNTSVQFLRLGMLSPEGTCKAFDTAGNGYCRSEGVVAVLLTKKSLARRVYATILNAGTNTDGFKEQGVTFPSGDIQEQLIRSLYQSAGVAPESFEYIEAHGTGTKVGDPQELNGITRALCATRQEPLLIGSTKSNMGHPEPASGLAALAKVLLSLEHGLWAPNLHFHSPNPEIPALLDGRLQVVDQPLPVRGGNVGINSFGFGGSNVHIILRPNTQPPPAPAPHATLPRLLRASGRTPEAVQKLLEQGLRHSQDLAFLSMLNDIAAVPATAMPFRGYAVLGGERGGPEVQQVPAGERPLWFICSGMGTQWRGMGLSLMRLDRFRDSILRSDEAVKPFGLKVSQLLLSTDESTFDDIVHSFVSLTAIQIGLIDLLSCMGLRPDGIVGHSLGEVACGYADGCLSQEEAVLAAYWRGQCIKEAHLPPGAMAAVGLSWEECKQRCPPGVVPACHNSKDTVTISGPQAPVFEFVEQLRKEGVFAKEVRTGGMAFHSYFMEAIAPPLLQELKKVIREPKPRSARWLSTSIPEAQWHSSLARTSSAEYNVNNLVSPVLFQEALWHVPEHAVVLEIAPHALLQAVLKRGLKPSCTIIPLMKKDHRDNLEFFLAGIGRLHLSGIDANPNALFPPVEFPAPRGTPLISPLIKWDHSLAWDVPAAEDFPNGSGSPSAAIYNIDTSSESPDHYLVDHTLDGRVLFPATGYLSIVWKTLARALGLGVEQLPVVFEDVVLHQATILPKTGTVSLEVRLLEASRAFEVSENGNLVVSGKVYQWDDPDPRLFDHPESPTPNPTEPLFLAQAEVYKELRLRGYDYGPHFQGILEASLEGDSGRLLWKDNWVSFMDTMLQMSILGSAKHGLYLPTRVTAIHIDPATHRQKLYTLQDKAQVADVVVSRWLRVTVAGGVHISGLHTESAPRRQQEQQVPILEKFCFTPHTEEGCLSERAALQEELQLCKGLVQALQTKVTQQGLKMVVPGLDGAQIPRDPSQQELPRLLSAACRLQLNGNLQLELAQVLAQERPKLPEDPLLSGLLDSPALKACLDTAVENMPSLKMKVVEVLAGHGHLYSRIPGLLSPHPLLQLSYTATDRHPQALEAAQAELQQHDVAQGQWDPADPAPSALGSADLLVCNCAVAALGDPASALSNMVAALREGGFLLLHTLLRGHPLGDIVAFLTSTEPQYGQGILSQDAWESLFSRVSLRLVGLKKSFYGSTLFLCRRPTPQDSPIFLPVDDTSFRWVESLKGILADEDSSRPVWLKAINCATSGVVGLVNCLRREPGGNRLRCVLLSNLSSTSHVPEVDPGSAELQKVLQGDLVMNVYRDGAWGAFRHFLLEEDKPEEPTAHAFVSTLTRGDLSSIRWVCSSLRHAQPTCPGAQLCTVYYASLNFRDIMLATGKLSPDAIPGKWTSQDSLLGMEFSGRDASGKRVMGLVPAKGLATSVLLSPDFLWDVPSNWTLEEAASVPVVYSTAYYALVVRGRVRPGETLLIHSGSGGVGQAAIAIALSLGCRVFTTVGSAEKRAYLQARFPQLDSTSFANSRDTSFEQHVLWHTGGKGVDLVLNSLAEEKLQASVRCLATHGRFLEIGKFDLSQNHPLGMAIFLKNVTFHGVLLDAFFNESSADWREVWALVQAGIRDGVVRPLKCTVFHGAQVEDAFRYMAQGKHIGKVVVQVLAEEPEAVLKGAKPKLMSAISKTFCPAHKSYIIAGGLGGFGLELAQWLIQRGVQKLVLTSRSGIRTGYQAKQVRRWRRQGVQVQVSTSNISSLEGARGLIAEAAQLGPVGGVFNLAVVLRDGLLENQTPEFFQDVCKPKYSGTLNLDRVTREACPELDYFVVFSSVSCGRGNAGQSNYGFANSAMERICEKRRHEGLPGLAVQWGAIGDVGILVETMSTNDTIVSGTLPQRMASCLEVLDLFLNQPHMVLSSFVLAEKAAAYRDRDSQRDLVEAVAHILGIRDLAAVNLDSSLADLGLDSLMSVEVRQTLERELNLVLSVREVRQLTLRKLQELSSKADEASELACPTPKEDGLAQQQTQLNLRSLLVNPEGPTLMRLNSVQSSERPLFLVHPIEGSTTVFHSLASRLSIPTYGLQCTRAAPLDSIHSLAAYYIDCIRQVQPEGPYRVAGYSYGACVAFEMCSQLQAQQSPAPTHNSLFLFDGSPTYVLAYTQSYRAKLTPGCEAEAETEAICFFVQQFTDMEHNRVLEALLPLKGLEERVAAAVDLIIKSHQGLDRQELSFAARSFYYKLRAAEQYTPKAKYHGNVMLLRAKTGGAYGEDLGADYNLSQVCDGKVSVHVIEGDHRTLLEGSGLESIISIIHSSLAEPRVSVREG

O=[N+]([O-])c1cccc(-c2ccc(SCc3cccnc3)nn2)c1
IC50 [1]: 8.53 µM (active)
IC50 [2]: 8.99 µM (active)

Clc1ccc(Nc2nc3cccnc3s2)cc1
EC50 [3]: 0.341 µM (active)
EC50 [4]: 0.333 µM (active)

O=S(=O)(CCSc1nc2ccccc2s1)c1nc2ccccc2s1
EC50 [5]: > 350 µM (not active)
EC50 [6]: > 350 µM (not active)
AC50 [7]: 2.29 µM (active)
EC50 [8]: 2.22 µM (active)

CC(CC(=O)Nc1nnc(C(C)(C)C)s1)c1ccccc1 (stereo not given)
IC50 [9]: > 66 µM (inactive)
IC50 [10]: > 66 µM (inactive)

CC(C)(C)NC(=O)/C(=C\C=C\c1ccccc1)NC(=O)c1ccc([N+](=O)[O-])cc1
IC50 [1]: 0.491 µM (active)
IC50 [2]: 0.462 µM (active)

Cc1ccc(C2CCN(C(S)=NC(C)(C)C)C2)cc1 (stereo not given)
EC50 [3]: 14.9 µM (active)
EC50 [4]: 18.1 µM (active)
EC50 [11]: 62.4 µM (active)
EC50 [12]: > 195 µM (not active)

CC(=O)c1ccc(NC(S)=NCCc2ccc(S(N)(=O)=O)cc2)cc1
IC50 [9]: > 66 µM (inactive)
IC50 [10]: > 66 µM (inactive)

COC(=O)C1=C(C(=O)OC)[C@@H]2N(Cc3ccccc3)c3ccccc3[C@@]23C[C@@H](C(=O)OC)N(C(=O)c2ccc(Br)cc2)C3=N1
AC50 [13]: 8.52 µM (active)
AC50 [14]: 34.8 µM (active)
AC50 [15]: 23.7 µM (active)

COc1cccc(OCCn2cc(C(C)=O)c3ccccc32)c1
AC50 [13]: 1.85 µM (active)
AC50 [14]: 7.55 µM (active)
AC50 [15]: 7.82 µM (active)

O=C(Nc1ccccc1[N+](=O)[O-])c1ccc(S(=O)(=O)N2CCCC2)cc1
EC50 [3]: 10.8 µM (active)
EC50 [4]: 9.21 µM (active)
EC50 [11]: 14.6 µM (active)

O=C(NNS(=O)(=O)c1ccc([N+](=O)[O-])cc1)c1ccc2ccccc2c1O
IC50 [1]: 7.74 µM (active)
IC50 [2]: 6.99 µM (active)

c1ccc(P(c2ccccc2)c2ccccn2)cc1
IC50 [9]: > 66 µM (inactive)
IC50 [10]: > 66 µM (inactive)

COc1cc(C)c(NC(=O)COc2cccc3c2OC(C)(C)C3)cc1OC
AC50 [13]: 7.06 µM (active)
AC50 [14]: 65.7 µM (active)
AC50 [15]: 11.3 µM (active)

COc1cccc(C(=O)NCC(=O)N2CCC3(CC2)NCCc2[nH]cnc23)c1
IC50 [16]: > 100 µM (inactive)
